From US5916881A, “High trehalose content syrup” (Kabushiki Kaisha Hayashibara Seibutsu Kagaku Kenkyujo, priority 1996, dated 1999)
Entries after “also recorded” stand apart in the source; their conditions may differ. Blank lines part the entries; values can stand above or below the molecule they belong to.

Key:
[1] = Trehalose crystallization inhibitory effect of coexisting saccharides in a trehalose syrup over the water solubility (Experiment 2); assay type: physicochemical; conditions: trehalose dissolved in an amount over the water solubility; summary of Table 2
Description: Trehalose was dissolved by heating in water in an amount of 1.5-times the water solubility at 10° C., and the trehalose solution was allowed to stand at a relatively-cold place for checking the trehalose crystallization inhibitory effect by saccharides. […] With this relationship, testing solutions were prepared by dissolving by heating in 100 parts by weight of water in a respective glass beaker 83 parts by weight of trehalose, and a saccharide in an amount of 10% to the trehalose, i.e., 8.3 parts by weight of the saccharide selected from the group consisting of glucose, maltose, isomaltose, lactose, maltotriose, panose, maltotetraose, sorbitol, maltitol, maltotriitol, sucrose, raffinose, erlose, saccharides such as α-glucosyltrehalose or monoglucosyltrehalose, α-maltosyltrehalose or diglucosyltrehalose, and α-maltotriosyltrehalose or triglucosyltrehalose as disclosed in Japanese Patent Kokai No.143,876/95 by the present applicant; a saccharide such as α-isomaltosyl-α-glucoside or monoglucosyltrehalose as disclosed in Japanese Patent Kokai No.217,784/96 by the same applicant; and a saccharide such as α-maltosyl-α-maltoside or diglucosyltrehalose as disclosed in Japanese Patent Application No.167,486/94 by the same applicant. Each solution was allowed to stand in a thermostatic place kept at 5, 10 or 15° C. for one week, followed by macroscopically observing the presence of trehalose crystal for evaluating the trehalose crystallization inhibitory effect by the saccharides.

[2] = Influence of the concentrations of trehalose and of mono-/diglucosyltrehalose on trehalose crystallization (Experiment 3); assay type: physicochemical; design: key to Formation of trehalose crystal: "+" means that it crystallized; "-" means that it did not
Description: The trehalose crystallization inhibitory effect was experimented by dissolving trehalose under heating conditions in water in an amount of 1.5, 2.0, 2.5, 2.8 or 3.3-times the water solubility at 10° C., dissolving in the solution other oligosaccharides having a trehalose structure within their molecules in an amount of 10, 30 or 60% to the trehalose, d.s.b, and allowing the resultant solution to stand at a relatively-low temperature.
Based on the results in Experiment 1, 1.5, 2.0, 2.5, 2.8 and 3.3-times the water solubility of trehalose in 100 parts by weight of water at 10° C. water corresponded to 83, 111, 138, 155 and 182 parts by weight of trehalose anhydride, d.s.b., respectively With this relationship, testing solutions with the composition as shown in Table 3 were prepared by dissolving under heating conditions in a respective glass beaker 100 parts by weight of water, trehalose in a prescribed part by weight, and either monoglucosyltrehalose, i.e., α-glucosyltrehalose or diglucosyltrehalose, i.e., α-maltosyltrehalose in a prescribed ratio, allowing the solution to stand in a thermostatic place kept at 5, 10 or 15° C. for checking the trehalose crystallization inhibitory effect.

Trehalose crystallization inhibitory effect (in words) [1]: specifically and effectively inhibited | Formation of trehalose crystal ([2]; water 100, trehalose 83, coexisting saccharide 8.3 parts by weight, 5° C. (1.7-times solubility)): - | Formation of trehalose crystal ([2]; water 100, trehalose 83, coexisting saccharide 8.3 parts by weight, 10° C. (1.5-times solubility)): - | Formation of trehalose crystal ([2]; water 100, trehalose 83, coexisting saccharide 8.3 parts by weight, 15° C. (1.3-times solubility)): - | Formation of trehalose crystal ([2]; water 100, trehalose 83, coexisting saccharide 25 parts by weight, 5° C. (1.7-times solubility)): - | Formation of trehalose crystal ([2]; water 100, trehalose 83, coexisting saccharide 25 parts by weight, 10° C. (1.5-times solubility)): - | Formation of trehalose crystal ([2]; water 100, trehalose 83, coexisting saccharide 25 parts by weight, 15° C. (1.3-times solubility)): - | Formation of trehalose crystal ([2]; water 100, trehalose 83, coexisting saccharide 50 parts by weight, 5° C. (1.7-times solubility)): - | Formation of trehalose crystal ([2]; water 100, trehalose 83, coexisting saccharide 50 parts by weight, 10° C. (1.5-times solubility)): - | Formation of trehalose crystal ([2]; water 100, trehalose 83, coexisting saccharide 50 parts by weight, 15° C. (1.3-times solubility)): - | Formation of trehalose crystal ([2]; water 100, trehalose 111, coexisting saccharide 11 parts by weight, 5° C. (2.2-times solubility)): + | Formation of trehalose crystal ([2]; water 100, trehalose 111, coexisting saccharide 11 parts by weight, 10° C. (2.0-times solubility)): - | Formation of trehalose crystal ([2]; water 100, trehalose 111, coexisting saccharide 11 parts by weight, 15° C. (1.8-times solubility)): - | Formation of trehalose crystal ([2]; water 100, trehalose 111, coexisting saccharide 33 parts by weight, 5° C. (2.2-times solubility)): - | Formation of trehalose crystal ([2]; water 100, trehalose 111, coexisting saccharide 33 parts by weight, 10° C. (2.0-times solubility)): - | Formation of trehalose crystal ([2]; water 100, trehalose 111, coexisting saccharide 33 parts by weight, 15° C. (1.8-times solubility)): - | Formation of trehalose crystal ([2]; water 100, trehalose 111, coexisting saccharide 66 parts by weight, 5° C. (2.2-times solubility)): - | Formation of trehalose crystal ([2]; water 100, trehalose 111, coexisting saccharide 66 parts by weight, 10° C. (2.0-times solubility)): - | Formation of trehalose crystal ([2]; water 100, trehalose 111, coexisting saccharide 66 parts by weight, 15° C. (1.8-times solubility)): - | Formation of trehalose crystal ([2]; water 100, trehalose 138, coexisting saccharide 14 parts by weight, 5° C. (2.8-times solubility)): + | Formation of trehalose crystal ([2]; water 100, trehalose 138, coexisting saccharide 14 parts by weight, 10° C. (2.5-times solubility)): + | Formation of trehalose crystal ([2]; water 100, trehalose 138, coexisting saccharide 14 parts by weight, 15° C. (2.2-times solubility)): - | Formation of trehalose crystal ([2]; water 100, trehalose 138, coexisting saccharide 42 parts by weight, 5° C. (2.8-times solubility)): + | Formation of trehalose crystal ([2]; water 100, trehalose 138, coexisting saccharide 42 parts by weight, 10° C. (2.5-times solubility)): + | Formation of trehalose crystal ([2]; water 100, trehalose 138, coexisting saccharide 42 parts by weight, 15° C. (2.2-times solubility)): - | Formation of trehalose crystal ([2]; water 100, trehalose 138, coexisting saccharide 83 parts by weight, 5° C. (2.8-times solubility)): + | Formation of trehalose crystal ([2]; water 100, trehalose 138, coexisting saccharide 83 parts by weight, 10° C. (2.5-times solubility)): + | Formation of trehalose crystal ([2]; water 100, trehalose 138, coexisting saccharide 83 parts by weight, 15° C. (2.2-times solubility)): - | Formation of trehalose crystal ([2]; water 100, trehalose 155, coexisting saccharide 16 parts by weight, 5° C. (3.1-times solubility)): + | Formation of trehalose crystal ([2]; water 100, trehalose 155, coexisting saccharide 16 parts by weight, 10° C. (2.8-times solubility)): + | Formation of trehalose crystal ([2]; water 100, trehalose 155, coexisting saccharide 16 parts by weight, 15° C. (2.5-times solubility)): + | Formation of trehalose crystal ([2]; water 100, trehalose 155, coexisting saccharide 46 parts by weight, 5° C. (3.1-times solubility)): + | Formation of trehalose crystal ([2]; water 100, trehalose 155, coexisting saccharide 46 parts by weight, 10° C. (2.8-times solubility)): + | Formation of trehalose crystal ([2]; water 100, trehalose 155, coexisting saccharide 46 parts by weight, 15° C. (2.5-times solubility)): + | Formation of trehalose crystal ([2]; water 100, trehalose 155, coexisting saccharide 93 parts by weight, 5° C. (3.1-times solubility)): + | Formation of trehalose crystal ([2]; water 100, trehalose 155, coexisting saccharide 93 parts by weight, 10° C. (2.8-times solubility)): + | Formation of trehalose crystal ([2]; water 100, trehalose 155, coexisting saccharide 93 parts by weight, 15° C. (2.5-times solubility)): + | Formation of trehalose crystal ([2]; water 100, trehalose 182, coexisting saccharide 18 parts by weight, 5° C. (3.7-times solubility)): + | Formation of trehalose crystal ([2]; water 100, trehalose 182, coexisting saccharide 18 parts by weight, 10° C. (3.3-times solubility)): + | Formation of trehalose crystal ([2]; water 100, trehalose 182, coexisting saccharide 18 parts by weight, 15° C. (3.0-times solubility)): + | Formation of trehalose crystal ([2]; water 100, trehalose 182, coexisting saccharide 55 parts by weight, 5° C. (3.7-times solubility)): + | Formation of trehalose crystal ([2]; water 100, trehalose 182, coexisting saccharide 55 parts by weight, 10° C. (3.3-times solubility)): + | Formation of trehalose crystal ([2]; water 100, trehalose 182, coexisting saccharide 55 parts by weight, 15° C. (3.0-times solubility)): + | Formation of trehalose crystal ([2]; water 100, trehalose 182, coexisting saccharide 110 parts by weight, 5° C. (3.7-times solubility)): + | Formation of trehalose crystal ([2]; water 100, trehalose 182, coexisting saccharide 110 parts by weight, 10° C. (3.3-times solubility)): + | Formation of trehalose crystal ([2]; water 100, trehalose 182, coexisting saccharide 110 parts by weight, 15° C. (3.0-times solubility)): +
SMILES: OC[C@H]1O[C@H](O[C@H]2O[C@H](CO)[C@@H](O[C@H]3O[C@H](CO)[C@@H](O)[C@H](O)[C@H]3O)[C@H](O)[C@H]2O)[C@H](O)[C@@H](O)[C@@H]1O [α-Glycosyltrehalose, α-glucosyltrehalose]
Trehalose crystallization inhibitory effect (in words) ([2]; summary of Table 3): satisfactory trehalose crystallization inhibitory effect

Trehalose crystallization inhibitory effect (in words) [1]: specifically and effectively inhibited
SMILES: OC[C@H]1O[C@H](OC[C@H]2O[C@H](O[C@H]3O[C@H](CO)[C@@H](O)[C@H](O)[C@H]3O)[C@H](O)[C@@H](O)[C@@H]2O)[C@H](O)[C@@H](O)[C@@H]1O [α-Isomaltosyl-α-glucoside, α-isomaltosyl-α-glucoside]

Trehalose crystallization inhibitory effect (in words) [1]: specifically and effectively inhibited
SMILES: OC[C@H]1O[C@H](O[C@H]2[C@H](O)[C@@H](O)[C@@H](O[C@H]3O[C@H](CO)[C@@H](O[C@H]4O[C@H](CO)[C@@H](O)[C@H](O)[C@H]4O)[C@H](O)[C@H]3O)O[C@@H]2CO)[C@H](O)[C@@H](O)[C@@H]1O [α-Maltosyl-α-maltoside, α-maltosyl-α-maltoside]

SMILES: OC[C@H]1O[C@H](O[C@H]2O[C@H](CO)[C@@H](O[C@H]3O[C@H](CO)[C@@H](O[C@H]4O[C@H](CO)[C@@H](O[C@H]5O[C@H](CO)[C@@H](O)[C@H](O)[C@H]5O)[C@H](O)[C@H]4O)[C@H](O)[C@H]3O)[C@H](O)[C@H]2O)[C@H](O)[C@@H](O)[C@@H]1O [α-Maltotriosyltrehalose, α-maltotriosyltrehalose]
Trehalose crystallization inhibitory effect (in words) [1]: specifically and effectively inhibited; also recorded: relatively-low trehalose crystallization inhibitory effect
